For the first experiment, the target named is T1, CB1 (Homo sapiens, UniProt P21554).
T1 construct: expressed in transfected cells; host or cells: CHO-K1 (membranes)
T1 sequence (P21554 whole entry): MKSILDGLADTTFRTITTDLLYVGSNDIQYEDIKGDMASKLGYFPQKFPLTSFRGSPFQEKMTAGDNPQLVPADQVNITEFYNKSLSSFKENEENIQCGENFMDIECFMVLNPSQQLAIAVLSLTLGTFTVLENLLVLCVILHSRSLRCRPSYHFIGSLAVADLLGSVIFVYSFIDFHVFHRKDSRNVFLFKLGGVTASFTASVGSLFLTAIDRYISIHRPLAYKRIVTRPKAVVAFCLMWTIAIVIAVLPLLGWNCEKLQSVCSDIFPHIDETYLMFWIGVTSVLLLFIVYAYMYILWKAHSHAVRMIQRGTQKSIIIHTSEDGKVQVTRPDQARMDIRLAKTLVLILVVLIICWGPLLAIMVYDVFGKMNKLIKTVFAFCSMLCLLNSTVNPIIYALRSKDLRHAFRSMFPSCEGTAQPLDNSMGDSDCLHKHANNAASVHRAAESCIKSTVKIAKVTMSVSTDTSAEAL
The experiment is described as follows: CB1 activated Gαq16-coupled intracellular calcium mobilization assay in CHO-K1 cells (apparent affinity Ke). Particulars: Table 2; calcium mobilization, apparent affinity; read-out: Ke CB1. Type of experiment: cell-based.
With `Cc1c(C(=O)NCc2cccc(CNS(N)(=O)=O)c2)nn(-c2ccc(Cl)cc2Cl)c1-c1ccc(Cl)cc1` [5-(4-chlorophenyl)-1-(2,4-dichlorophenyl)-4-methyl-N-({3-[(sulfamoylamino)methyl]phenyl}methyl)-1H-pyrazole-3-carboxamide], the Kb came out at 4200 nM. As for `Cc1c(C(=O)NCc2ccc(CNS(N)(=O)=O)cc2)nn(-c2ccc(Cl)cc2Cl)c1-c1ccc(Cl)cc1` [5-(4-chlorophenyl)-1-(2,4-dichlorophenyl)-4-methyl-N-({4-[(sulfamoylamino)methyl]phenyl}methyl)-1H-pyrazole-3-carboxamide], the Kb is 376 nM. `Cc1c(C(=O)NCCCCCCCNS(N)(=O)=O)nn(-c2ccc(Cl)cc2Cl)c1-c1ccc(Cl)cc1` [5-(4-chlorophenyl)-1-(2,4-dichlorophenyl)-4-methyl-N-[7-(sulfamoylamino)heptyl]-1H-pyrazole-3-carboxamide]: the Kb amounted to 304 nM. Consider `Cc1c(C(=O)N[C@H]2CC[C@H](NS(N)(=O)=O)CC2)nn(-c2ccc(Cl)cc2Cl)c1-c1ccc(Cl)cc1` [5-(4-chlorophenyl)-1-(2,4-dichlorophenyl)-4-methyl-N-[(1r,4r)-4-(sulfamoylamino)cyclohexyl]-1H-pyrazole-3-carboxamide], for which the Kb amounted to 9430 nM. On the same count and under the same terms, for `Cc1c(C(=O)N[C@H]2CC[C@H](NS(C)(=O)=O)CC2)nn(-c2ccc(Cl)cc2Cl)c1-c1ccc(Cl)cc1` [5-(4-chlorophenyl)-1-(2,4-dichlorophenyl)-4-methyl-N-[(1r,4r)-4-methanesulfonamido-cyclohexyl]-1H-pyrazole-3-carboxamide] the value was over 10000 nM. On the same count and under the same terms, for `Cc1c(C(=O)NCCCN(C)CCCNS(C)(=O)=O)nn(-c2ccc(Cl)cc2Cl)c1-c1ccc(Cl)cc1` [5-(4-chlorophenyl)-1-(2,4-dichlorophenyl)-N-{3-[(3-methanesulfonamidopropyl)(methyl)amino]propyl}-4-methyl-1H-pyrazole-3-carboxamide] the value was 5340 nM. On to `Cc1c(C(=O)NCc2cccc(CNS(C)(=O)=O)c2)nn(-c2ccc(Cl)cc2Cl)c1-c1ccc(Cl)cc1` [5-(4-chlorophenyl)-1-(2,4-dichlorophenyl)-N-{[3-(methanesulfonamidomethyl)phenyl]methyl}-4-methyl-1H-pyrazole-3-carboxamide], for which the Kb was 2830 nM. Still for that read-out and setting: for `Cc1c(C(=O)NCc2ccc(CNS(C)(=O)=O)cc2)nn(-c2ccc(Cl)cc2Cl)c1-c1ccc(Cl)cc1` [5-(4-chlorophenyl)-1-(2,4-dichlorophenyl)-N-{[4-(methanesulfonamidomethyl)phenyl]methyl}-4-methyl-1H-pyrazole-3-carboxamide] the value was 2930 nM.

Still in this experiment, the particulars now being: Table 4; calcium mobilization; read-out: Ke (nM) at CB1.
In the case of `Cc1c(C(=O)N2CCC(O)(c3ccccc3)CC2)nn(-c2ccc(Cl)cc2Cl)c1-c1ccc(C#N)cc1` [CN, phenyl, OH, 4-[1-(2,4-dichlorophenyl)-3-[(4-hydroxy-4-phenylpiperidin-1-yl)carbonyl]-4-methyl-1H-pyrazol-5-yl]benzonitrile], the Kb amounted to 907 nM.

As for `Cc1c(C(=O)N2CCC(N)CC2)nn(-c2ccc(Cl)cc2Cl)c1-c1ccc(Cl)cc1` [Cl, H, NH2, 1-{[5-(4-Chlorophenyl)-1-(2,4-dichlorophenyl)-4-methyl-1H-pyrazol-3-yl]carbonyl}piperidin-4-amine], the Kb came out at 1920 nM. On the same count and under the same terms, for `CCCNC(=O)NC1CCN(C(=O)c2nn(-c3ccc(Cl)cc3Cl)c(-c3ccc(Cl)cc3)c2C)CC1` [Cl, H, NHC(O)NHC3H7, 1-(1-{[5-(4-Chlorophenyl)-1-(2,4-dichlorophenyl)-4-methyl-1H-pyrazol-3-yl]carbonyl}piperidin-4-yl)-3-propylurea] the value was 546 nM.

The experiment is the same for the next values; noted with them: Table 5; calcium mobilization; read-out: Ke (nM) at CB1.
With “4-C-5-(4-Chlorophenyl)-1-(2,4-dichlorophenyl)-4-methyl-1H-pyrazole-3-1-N-propylpiperidine-1,4-diamido [NH(n-propyl)]”, the Kb is recorded as 66.5 nM.

The values are drawn from patent US9133128B2, “Pyrazole derivatives as cannabinoid receptor 1 antagonists” (Research Triangle Institute, priority 2011, dated 2015).
